# Measured values from article PMC5415745, “Drug-transporter mediated interactions between anthelminthic and antiretroviral drugs across the Caco-2 cell monolayers” (BMC Pharmacology & Toxicology, 2017).
# Where “and” joins values, the source holds several entries; their conditions need not be identical. Equal entries are not always repeated. Entries after “also recorded” stand apart in the source; their conditions may differ.
# Tested on: Caco-2 cell monolayers
# Assay: Bidirectional (AP→BL, BL→AP) drug transport across Caco-2 cell monolayers in transwells: cumulative transport, Papp, efflux ratio; HPLC or radiolabeled assay
# [1] = 120 min, individual samples 1-3
# [2] = 180 min, individual samples 1-3
# [3] = 240 min, individual samples 1-3
# [4] = IVM alone (SQV experiment), 60 min, mean
# [5] = IVM alone (SQV experiment), 120 min, mean
# [6] = IVM alone (SQV experiment), 120 min, samples 1-3
# [7] = IVM alone (SQV experiment), 180 min, mean
# [8] = IVM alone (SQV experiment), 180 min, samples 1-3
# [9] = IVM alone (SQV experiment), 240 min, mean
# [10] = IVM alone (SQV experiment), 240 min, samples 1-3
# [11] = IVM alone (SQV experiment), after 60min, individual samples
# [12] = IVM alone (SQV experiment), after 60min, mean
# [13] = IVM alone, 60 min, individual experiments 1-3
# [14] = IVM alone, 120 min, individual experiments 1-3
# [15] = IVM alone, 180 min, individual experiments 1-3
# [16] = IVM alone, 240 min, individual experiments 1-3
# [17] = [3H] IVM alone, 60 min, individual experiments 1-3
# [18] = [3H] IVM alone, 60 min, mean, n=3
# [19] = [3H] IVM alone, 120 min, individual experiments 1-3
# [20] = [3H] IVM alone, 120 min, mean, n=3
# [21] = [3H] IVM alone, 180 min, individual experiments 1-3
# [22] = [3H] IVM alone, 180 min, mean, n=3
# [23] = [3H] IVM alone, 240 min, individual experiments 1-3
# [24] = [3H] IVM alone, 240 min, mean, n=3
# [25] = [3H] IVM alone, after 60 min, mean, n=3
# [26] = [3H] IVM alone, after 60 min, samples 1-3
# [27] = labelled drug is the interacting drug
# [28] = samples after 60min, individual samples 1-3, IVM alone
# [29] = samples after 60min, mean n=3, IVM alone
# Method: The monolayers used were of between passage 20 and 65 after 15 days of growth. Each experiment was performed in duplicate using two six well-transwell culture plates. The cells were trypsinized as described earlier, and after centrifugation the pellet re-suspended in fresh DMEM (+15%), and the cells counted using a cell counter. A volume of DMEM was added enough to give a cell count of 2 × 10^6 cells per ml, and cells were seeded on the transwell culture plates at a density of 2 × 10^4 cells/cm^2 (~ 100,000 cells per well, since insert membrane growth area = 4.67 cm^2). The plates were then incubated at 37°C and 10% CO2 in a humidified chamber and the media changed every 2-3 days, by aspirating using a suction pump and replacing with an equal volume of DMEM. Transport experiments were conducted 15 to 20 days after seeding. The TEER across the cell monolayers was monitored using a Millicell-ERS in order to assess cell monolayer integrity and the monolayers considered appropriate for the experiment when the TEER values were typically above 500 cm^2 [49, 70].
# Prior to transport studies, each monolayer was washed and equilibrated with the transport medium (DMEM without FBS). The medium was removed from all AP and BL compartments of the transwells and replaced with 2 ml of the transport medium (DMEM alone), to both compartments and equilibrated for 1 h (37°C, 10% CO2 incubator), after which the TEER was re-assessed and labeled. The medium was then removed from both compartments and replaced with an equal volume of pre-warmed medium containing the compound of interest at the appropriate concentration. For the AP → BL transport, 2 ml of medium containing the desired drug was placed in the AP chamber and 2 ml of the medium alone in the BL chamber, whereas 2 ml of medium containing the drug was placed in the BL and 2 ml of medium on the AP chamber for the BL → AP transport [71]. The effect of the second drug was then assessed by adding the medium containing the original drug and the drug under study to the AP side for AP → BL transport with the medium containing the original drug alone in the BL chamber, and vice-versa for the BL → AP transport. Transport in each direction was done in triplicate. The transwell plates were then incubated (37°C, 10% CO2 incubator), and 100μl of the samples from the AP and BL compartments were taken at 60, 120, 180 and 240 min and quantified either by HPLC method described earlier [45], or by the use of a liquid scintillating counter depending on the drug under study. The HPLC method involved liquid - liquid extraction followed by ultra-high performance liquid chromatography using a Hypurity C18 column and ultraviolet detection set at a wavelength of 215 nm. The mobile phase consisted of ammonium formate, acetonitrile and methanol (57:38:5 v/v). Separation was facilitated via isocratic elution at a flow rate of 1.5 ml/min. For HPLC assays, the concentration used for each drug was 20μg/ml. The concentrations that offered the best detection were selected for radiolabeled assay. […] The integrity of the CCM during the experiment was monitored by measuring the TEER at the beginning (0 min) and the end of the experiment (240min).
# The results were expressed as apparent permeability coefficient (Papp, unit: cms^-1), the amount of compound transported per second. Papp values were calculated for both AP to BL (PappAtoB), and BL to AP (PappBtoA) movement of the compound. Papp was calculated using the following equation [52, 72]: • Papp (cm/s) = (dQ/dt) x (1/(ACO) • dQ/dt = Steady-state flux (dpm s^-1 or μmol s^-1) • A = Surface area of the filter (cm^2) • CO = Initial concentration in the donor chamber (dpm litre ^-1 or μM)
# The quotient of secretory permeability and absorptive permeability (PappBL-AP/PappAP-BL) constitutes the efflux ratio, while the reverse (PappAP-BL/PappBL-AP) is the uptake ratio [71].
compound,measurement,setting,value
"CC[C@H](C)[C@H]1O[C@]2(CC[C@@H]1C)C[C@@H]1C[C@@H](C/C=C(\C)[C@@H](O[C@H]3C[C@H](OC)[C@@H](O[C@H]4C[C@H](OC)[C@@H](O)[C@H](C)O4)[C@H](C)O3)[C@@H](C)/C=C/C=C3\CO[C@@H]4[C@H](O)C(C)=C[C@@H](C(=O)O1)[C@]34O)O2 [IVM, ivermectin]","Apical to basal transport (cumulative, receiver)","60 min, individual samples 1-3",0.57 pmol and 0.44 pmol and 1.00 pmol
same,"Basal to apical transport (cumulative, receiver)","60 min, individual samples 1-3",0.65 pmol and 0.55 pmol and 0.96 pmol
same,"Apical to basal transport (cumulative, receiver), Mean","60 min, mean n=3",0.67 pmol
same,"Basal to apical transport (cumulative, receiver), Mean","60 min, mean n=3",0.72 pmol
same,"Apical to basal transport (cumulative, receiver)",[1],0.50 pmol and 0.61 pmol and 1.00 pmol
same,"Basal to apical transport (cumulative, receiver)",[1],1.34 pmol and 1.05 pmol and 1.67 pmol
same,"Apical to basal transport (cumulative, receiver), Mean","120 min, mean n=3",0.71 pmol
same,"Apical to basal transport (cumulative, receiver)",[2],0.66 pmol and 0.77 pmol and 1.54 pmol
same,"Basal to apical transport (cumulative, receiver)",[2],1.45 pmol and 1.96 pmol
same,"Apical to basal transport (cumulative, receiver), Mean","180 min, mean n=3",0.99 pmol
same,"Basal to apical transport (cumulative, receiver), Mean","180 min, mean n=3",1.63 pmol
same,"Apical to basal transport (cumulative, receiver)",[3],0.96 pmol and 0.81 pmol and 1.30 pmol
same,"Basal to apical transport (cumulative, receiver)",[3],2.52 pmol and 1.59 pmol and 2.27 pmol
same,"Apical to basal transport (cumulative, receiver), Mean","240 min, mean n=3",1.03 pmol
same,"Basal to apical transport (cumulative, receiver), Mean","240 min, mean n=3",2.13 pmol
same,Apical to basal transport Mean,[4],11.45 fmol
same,Basal to apical transport Mean,[4],11.69 fmol
same,Basal to apical transport,"IVM alone (SQV experiment), 60 min, samples 1-3",12.29 fmol and 9.26 fmol
same,Apical to basal transport Mean,[5],15.92 fmol
same,Basal to apical transport Mean,[5],17.90 fmol
same,Apical to basal transport,[6],14.08 fmol and 21.31 fmol and 12.37 fmol
same,Basal to apical transport,[6],21.06 fmol and 15.84 fmol and 16.78 fmol
same,Apical to basal transport Mean,[7],20.75 fmol
same,Basal to apical transport Mean,[7],25.75 fmol
same,Apical to basal transport,[8],23.29 fmol and 18.34 fmol and 20.63 fmol
same,Basal to apical transport,[8],26.26 fmol
same,Apical to basal transport Mean,[9],25.60 fmol
same,Basal to apical transport Mean,[9],35.30 fmol
same,Apical to basal transport,[10],21.18 fmol and 30.03 fmol and 25.60 fmol
same,Basal to apical transport,[10],45.23 fmol and 24.14 fmol and 36.53 fmol
same,Apical to basal transport Conc. Basal,[11],15.84 fmol and 11.06 fmol and 7.45 fmol
same,Basal to apical transport Conc. Apical,[11],13.53 fmol
same,PappAB,[11],10.74 10^6 cm/s and 7.18 10^6 cm/s and 4.31 10^6 cm/s
same,PappBA,[11],7.36 10^6 cm/s and 5.84 10^6 cm/s and 4.54 10^6 cm/s
same,PappAB Mean,[12],7.41 10^6 cm/s
same,PappBA Mean,[12],5.92 10^6 cm/s
same,Apical to basal transport,[13],8300 fmol and 7460 fmol and 8350 fmol
same,Basal to apical transport,[13],15750 fmol and 21160 fmol
same,Apical to basal transport Mean,"IVM alone, 60 min, mean, n=3",8040 fmol
same,Basal to apical transport Mean,"IVM alone, 60 min, mean, n=3",17700 fmol
same,Apical to basal transport,[14],17040 fmol and 10980 fmol and 9220 fmol
same,Basal to apical transport,[14],21400 fmol and 27210 fmol and 31370 fmol
same,Apical to basal transport Mean,"IVM alone, 120 min, mean, n=3",12410 fmol
same,Basal to apical transport Mean,"IVM alone, 120 min, mean, n=3",26660 fmol
same,Apical to basal transport,[15],20270 fmol and 13190 fmol and 16360 fmol
same,Basal to apical transport,[15],26810 fmol and 40700 fmol
same,Apical to basal transport Mean,"IVM alone, 180 min, mean, n=3",16610 fmol
same,Basal to apical transport Mean,"IVM alone, 180 min, mean, n=3",31010 fmol
same,Apical to basal transport,[16],16260 fmol and 22170 fmol and 13750 fmol
same,Basal to apical transport,[16],35200 fmol and 45800 fmol
same,Apical to basal transport Mean,"IVM alone, 240 min, mean, n=3",17390 fmol
same,Basal to apical transport Mean,"IVM alone, 240 min, mean, n=3",37700 fmol
same,Apical to basal transport,[17],14.35 fmol and 14.86 fmol and 15.44 fmol
same,Basal to apical transport,[17],12.86 fmol and 12.68 fmol
same,Apical to basal transport Mean,[18],14.88 fmol
same,Basal to apical transport Mean,[18],13.03 fmol
same,Apical to basal transport,[19],20.80 fmol and 20.34 fmol and 21.75 fmol
same,Basal to apical transport,[19],17.34 fmol and 18.56 fmol and 18.52 fmol
same,Apical to basal transport Mean,[20],20.96 fmol
same,Basal to apical transport Mean,[20],18.14 fmol
same,Apical to basal transport,[21],25.72 fmol and 23.95 fmol and 25.43 fmol
same,Basal to apical transport,[21],17.07 fmol and 23.80 fmol and 31.79 fmol
same,Apical to basal transport Mean,[22],25.03 fmol
same,Basal to apical transport Mean,[22],24.22 fmol
same,Apical to basal transport,[23],25.16 fmol and 26.38 fmol and 23.06 fmol
same,Basal to apical transport,[23],22.70 fmol and 28.67 fmol and 34.20 fmol
same,Apical to basal transport Mean,[24],24.86 fmol
same,Basal to apical transport Mean,[24],28.52 fmol
same,PappAB Mean,[25],14.06 10^6 cm/s
same,PappBA Mean,[25],11.32 10^6 cm/s
same,Apical to basal transport Conc. Apical,[26],101.63 fmol and 106.60 fmol and 109.59 fmol
same,Basal to apical transport Conc. Apical,[26],13.56 fmol
same,Basal to apical transport Conc. Basal,[26],110.67 fmol and 126.53 fmol and 111.99 fmol
same,PappAB Papp,[26],16.8 ×10⁻⁶ cm/s and 13.7 ×10⁻⁶ cm/s and 11.7 ×10⁻⁶ cm/s
same,PappBA Papp,[26],14.6 ×10⁻⁶ cm/s and 9.96 ×10⁻⁶ cm/s and 9.43 ×10⁻⁶ cm/s
same,Effect on the (efflux) transport of SQV,[27],significantly inhibited
same,Effect on the efflux of EFV,[27],increased; also recorded: marginally significant increase
same,Effect on the efflux transport of LPV,[27],significantly inhibited; also recorded: eightfold inhibition
same,Effect on the transport of NVP,[27],did not appear to significantly influence
same,PappAB Papp,[28],7.59 10^9 cm/s and 4.95 10^9 cm/s and 10.26 10^9 cm/s
same,PappBA Papp,[28],10.18 10^9 cm/s and 5.89 10^9 cm/s and 10.76 10^9 cm/s
same,PappAB Mean,[29],7.60 10^9 cm/s
same,PappBA Mean,[29],8.94 10^9 cm/s
